Laboratory results: the OligoGym collection
Where “and” joins values, the source holds several entries; their conditions need not be identical. Equal entries are not always repeated. After the bases stand the sugars from the 5' end (letter, count) and the backbone: PS all phosphorothioate, else s phosphorothioate and o phosphodiester by linkage. Methylation of C is not given here. e = 2'-O-(2-methoxyethyl) (MOE); k = constrained ethyl (cEt); d = 2'-deoxy (DNA); m = 2'-O-methyl

Target: IRF5
Conditions: ASO

“CTGAUATGATACCTAA (sugars k3 d1 m1 d8 k3, PS)” was tested, and the target mRNA inhibition (A-431, 0.00412 µM) was 6%, the target mRNA inhibition (A-431, 0.01225 µM) was 23% and the target mRNA inhibition (A-431, 0.03704 µM) was 41%. For the same sequence, the target mRNA inhibition (A-431, 0.11111 µM) was 64%, the target mRNA inhibition (A-431, 0.33333 µM) was 82% and the target mRNA inhibition (A-431, 1 µM) was 82%.
Work on “CTGTCACATCTCCACA (sugars k2 d8 e4 k2, PS)” yielded a target mRNA inhibition (KARPAS-229, 4 µM) of 11%.
With “CTTCTGCAGGGAGTCA (sugars k2 d8 e4 k2, PS)” the target mRNA inhibition (KARPAS-229, 4 µM) was 0%.
“CTTCTGCAGGGAGTCA (sugars kkddddddddkekekk, PS)” gave a target mRNA inhibition (KARPAS-229, 4 µM) of 0%.
CTTGGTCTTGACCTCC (sugars k3 d10 k3, PS) was tested, and the target mRNA inhibition (KARPAS-229, 4 µM) was 41%.
“CTTGGTCTTGACCTCC (sugars kddddddddddkekek, PS)” was tested, and the target mRNA inhibition (KARPAS-229, 4 µM) was 0%.
Sequence CTTGTCTAGTGTCATG (sugars k3 d10 k3, PS) has a target mRNA inhibition (KARPAS-229, 4 µM) of 58%.
In the case of GAATTTTGTGACTGTA (sugars k3 d10 k3, PS), the target mRNA inhibition (KARPAS-229, 0.44444 µM) is reported as 41%, the target mRNA inhibition (KARPAS-229, 1.33333 µM) is reported as 66% and the target mRNA inhibition (KARPAS-229, 4 µM) is reported as 57% and 67%. For the same sequence, the target mRNA inhibition (KARPAS-229, 12 µM) was 78%.
GACTGTATTACCTATA (sugars k3 d10 k3, PS) gave a target mRNA inhibition (KARPAS-229, 4 µM) of 41%.
GAGGAAGTGAGTCTCA (sugars k3 d10 k3, PS) gave a target mRNA inhibition (KARPAS-229, 4 µM) of 0%.
“GAGTCATGGGCTGAGG (sugars kkdddddddddkekek, PS)” was tested, and the target mRNA inhibition (KARPAS-229, 4 µM) was 15%.
Sequence “GAGTCATGGGCTGAGG (sugars kkkddddddddkekek, PS)” has a target mRNA inhibition (KARPAS-229, 4 µM) of 0%.
Sequence “GAGTCTCAAACCAGGG (sugars kkddddddddkekekk, PS)” has a target mRNA inhibition (KARPAS-229, 4 µM) of 0%.
“GATGGTGTTATCTCCG (sugars k2 d9 e3 k2, PS)” showed a target mRNA inhibition (KARPAS-229, 4 µM) of 0%.
“GATGGTGTTATCTCCG (sugars kkddddddddkekekk, PS)” gave a target mRNA inhibition (KARPAS-229, 4 µM) of 0%.
“GATGGTGTTATCTCCG (sugars kkkddddddddkekek, PS)” gave a target mRNA inhibition (KARPAS-229, 4 µM) of 0%.
GCAAAGGGTGAGTAGG (sugars k3 d10 k3, PS) gave a target mRNA inhibition (KARPAS-229, 4 µM) of 24%.
For “GCACTGACACAGGCGG (sugars kddddddddddkekek, PS)”, the target mRNA inhibition (KARPAS-229, 4 µM) was 0%.
GCATTCCATATACACA (sugars k3 d10 k3, PS) gave a target mRNA inhibition (KARPAS-229, 4 µM) of 21%.
With “GCATTCCATATACACA (sugars kkddddddddddkeke, PS)” the target mRNA inhibition (KARPAS-229, 4 µM) was 37%.
For “GCATTCCATATACACA (sugars kkdddddddddkekek, PS)”, the target mRNA inhibition (KARPAS-229, 4 µM) was 2%.
Sequence “GCATTCCATATACACA (sugars kkkddddddddkekek, PS)” has a target mRNA inhibition (KARPAS-229, 4 µM) of 0%.
Work on “GCTGTCACATCTCCAC (sugars kdddddddddkekeke, PS)” yielded a target mRNA inhibition (KARPAS-229, 4 µM) of 0%.
“GCTGTCACATCTCCAC (sugars kkddddddddddkeke, PS)” was tested, and the target mRNA inhibition (KARPAS-229, 4 µM) was 8%.
“GCTGTCACATCTCCAC (sugars kkkddddddddkekek, PS)” was tested, and the target mRNA inhibition (KARPAS-229, 4 µM) was 0%.
Work on “GCTTGGTCTTGACCTC (sugars kkkdddddddddkeke, PS)” yielded a target mRNA inhibition (KARPAS-229, 4 µM) of 35%.
“GGAAGTGAGTCTCAAA (sugars k2 d8 e4 k2, PS)” showed a target mRNA inhibition (KARPAS-229, 4 µM) of 34%.
With GGAAGTGAGTCTCAAA (sugars k3 d10 k3, PS) the target mRNA inhibition (KARPAS-229, 0.44444 µM) was 27%, the target mRNA inhibition (KARPAS-229, 1.33333 µM) was 39% and the target mRNA inhibition (KARPAS-229, 4 µM) was 51% and 68%. It also gave a target mRNA inhibition (KARPAS-229, 12 µM) of 79%.
Sequence “GGAAGTGAGTCTCAAA (sugars kkdddddddddkdkdk, PS)” has a target mRNA inhibition (KARPAS-229, 4 µM) of 12%.
Work on “GGAGTGAGACGAGCAA (sugars k2 d8 e4 k2, PS)” yielded a target mRNA inhibition (KARPAS-229, 4 µM) of 17%.
Sequence “GGAGTGAGACGAGCAA (sugars k2 d9 e3 k2, PS)” has a target mRNA inhibition (KARPAS-229, 4 µM) of 25%.
“GGTCTGGCCCTTTTGG (sugars k3 d9 k3 e1, PS)” was tested, and the target mRNA inhibition (KARPAS-229, 4 µM) was 0%.
With “GGTCTGGCCCTTTTGG (sugars kkkdddddddddkeke, PS)” the target mRNA inhibition (KARPAS-229, 4 µM) was 17%.
GGTCTTGACCTCCCGC (sugars k3 d10 k3, PS) gave a target mRNA inhibition (KARPAS-229, 4 µM) of 33%.
“GGTCTTGACCTCCCGC (sugars kdddddddddkekeke, PS)” gave a target mRNA inhibition (KARPAS-229, 4 µM) of 35%.
Work on “GGTCTTGACCTCCCGC (sugars kkddddddddddkeke, PS)” yielded a target mRNA inhibition (KARPAS-229, 4 µM) of 0%.
With “GGTCTTGACCTCCCGC (sugars kkdddddddddkekek, PS)” the target mRNA inhibition (KARPAS-229, 4 µM) was 7%.
Work on “GGTCTTGACCTCCCGC (sugars kkddddddddkekekk, PS)” yielded a target mRNA inhibition (KARPAS-229, 4 µM) of 44%.
In the case of “GGTCTTTGAGGTCTGG (sugars kkdddddddddkekek, PS)”, the target mRNA inhibition (KARPAS-229, 4 µM) is reported as 54%.
With “GGTCTTTGAGGTCTGG (sugars kkkddddddddkekek, PS)” the target mRNA inhibition (KARPAS-229, 4 µM) was 46%.
In the case of “GGTGTATTTCCCTGTC (sugars kkkdddddddddkeke, PS)”, the target mRNA inhibition (KARPAS-229, 4 µM) is reported as 0%.
In the case of “GGTTCTTGGACTCTCA (sugars kkddddddddddkeke, PS)”, the target mRNA inhibition (KARPAS-229, 0.44444 µM) is reported as 39%, the target mRNA inhibition (KARPAS-229, 1.33333 µM) is reported as 59% and the target mRNA inhibition (KARPAS-229, 4 µM) is reported as 51% and 73%. For the same sequence, the target mRNA inhibition (KARPAS-229, 12 µM) was 84%.
“GGTTCTTGGACTCTCA (sugars kkkddddddddkekek, PS)” gave a target mRNA inhibition (KARPAS-229, 4 µM) of 25%.
In the case of GTCATGGAATTTTGTG (sugars k3 d10 k3, PS), the target mRNA inhibition (KARPAS-229, 4 µM) is reported as 54%.
GTCTAGTGTCATGGAA (sugars k3 d10 k3, PS) was tested, and the target mRNA inhibition (KARPAS-229, 4 µM) was 38%.
Work on “GTCTGGCCCTTTTGGA (sugars kkddddddddddkeke, PS)” yielded a target mRNA inhibition (KARPAS-229, 4 µM) of 0%.
In the case of “GTGAGTCTCAAACCAG (sugars kddddddddddkekek, PS)”, the target mRNA inhibition (KARPAS-229, 4 µM) is reported as 0%.
“GTGAGTCTCAAACCAG (sugars kkddddddddkekekk, PS)” showed a target mRNA inhibition (KARPAS-229, 4 µM) of 9%.
In the case of “GTGAGTCTCAAACCAG (sugars kkkdddddddddkeke, PS)”, the target mRNA inhibition (KARPAS-229, 4 µM) is reported as 0%.
In the case of “GTGTATTTCCCTGTCT (sugars kkdddddddddkekek, PS)”, the target mRNA inhibition (KARPAS-229, 4 µM) is reported as 0%.
With “GTGTATTTCCCTGTCT (sugars kkkddddddddkekek, PS)” the target mRNA inhibition (KARPAS-229, 4 µM) was 0%.
In the case of “GTTATCTCCGTCCTGG (sugars k3 d9 k3 e1, PS)”, the target mRNA inhibition (KARPAS-229, 4 µM) is reported as 33%.
Sequence “GTTATCTCCGTCCTGG (sugars kdddddddddkekeke, PS)” has a target mRNA inhibition (KARPAS-229, 4 µM) of 0%.
Sequence “GTTATCTCCGTCCTGG (sugars kkddddddddddkeke, PS)” has a target mRNA inhibition (KARPAS-229, 4 µM) of 0%.
In the case of “GTTATCTCCGTTCCTGG (sugars kddddddddddkekekd, PS)”, the target mRNA inhibition (KARPAS-229, 4 µM) is reported as 0%.
For “GTTATCTCCGTTCCTGG (sugars kkkddddddddkdkdkd, PS)”, the target mRNA inhibition (KARPAS-229, 4 µM) was 27%.
“GTTCTTGGACTCTCAA (sugars kkdddddddddkdkdk, PS)” showed a target mRNA inhibition (KARPAS-229, 4 µM) of 20%.
TAAACCATTCTATGCC (sugars k3 d10 k3, PS) showed a target mRNA inhibition (KARPAS-229, 4 µM) of 9%.
Sequence TAAGGGCACAGCGCAG (sugars k3 d10 k3, PS) has a target mRNA inhibition (KARPAS-229, 4 µM) of 0%.
Work on TAGGAGTGAGACGAGC (sugars k3 d10 k3, PS) yielded a target mRNA inhibition (KARPAS-229, 4 µM) of 1%.
“TATTTCTGCTCCAGGT (sugars k2 d9 e3 k2, PS)” gave a target mRNA inhibition (KARPAS-229, 0.44444 µM) of 57%, a target mRNA inhibition (KARPAS-229, 1.33333 µM) of 71% and a target mRNA inhibition (KARPAS-229, 12 µM) of 83%.
With “TATTTCTGCTCCAGGT (sugars kkddddddddkekekk, PS)” the target mRNA inhibition (KARPAS-229, 4 µM) was 0%.
With “TATTTCTGCTCCAGGT (sugars kkkddddddddkekek, PS)” the target mRNA inhibition (KARPAS-229, 4 µM) was 24%.
“TCACCACTGTGTACCC (sugars k2 d8 e4 k2, PS)” showed a target mRNA inhibition (KARPAS-229, 4 µM) of 0%.
TCCAATTTTGCATTCC (sugars k3 d10 k3, PS) was tested, and the target mRNA inhibition (KARPAS-229, 0.44444 µM) was 38%, the target mRNA inhibition (KARPAS-229, 1.33333 µM) was 66% and the target mRNA inhibition (KARPAS-229, 4 µM) was 78% and 79%. The target mRNA inhibition (KARPAS-229, 12 µM) was 83%.
Sequence “TCCAATTTTGCATTCC (sugars kkddddddddddkeke, PS)” has a target mRNA inhibition (KARPAS-229, 4 µM) of 40%.
Work on “TCCAATTTTGCATTCC (sugars kkdddddddddkekek, PS)” yielded a target mRNA inhibition (KARPAS-229, 4 µM) of 29%.
“TCCAATTTTGCATTCC (sugars kkkddddddddkekek, PS)” was tested, and the target mRNA inhibition (KARPAS-229, 4 µM) was 51%.
TCTAGTGTCATGGAAT (sugars k3 d10 k3, PS) was tested, and the target mRNA inhibition (KARPAS-229, 4 µM) was 14%.
